Measured values taken from US10597388B2, “Pyridazinone herbicides” (FMC CORPORATION, priority 2014, dated 2020).

Assays:
Assay in all cases: Test D controlled growth environment herbicide test, pre- and postemergence
Assay type in all cases: in vivo
[1] = tested on: bromegrass, downy (downy bromegrass, Bromus tectorum)
Text: (§1) Seeds of plant species selected from bluegrass (annual bluegrass, Poa annua), blackgrass (Alopecurus myosuroides), Canada thistle (Cirsium arvense), canarygrass (Phalaris minor), chickweed (common chickweed, Stellaria media), geranium, cutleaf (cutleaf geranium, Geranium dissectum), galium (catchweed bedstraw, Galium aparine), bromegrass, downy (downy bromegrass, Bromus tectorum), field poppy (Papaver rhoeas), field violet (Viola arvensis), foxtail, green (green foxtail, Setaria viridis), deadnettle (henbit deadnettle, Lamium amplexicaule), ryegrass, Italian (Italian ryegrass, Lolium multiflorum), kochia (Kochia scoparia), lambsquarters (Chenopodium album), oilseed rape (Brassica napus), pigweed (Amaranthus retroflexus), chamomile (scentless chamomile, Matricaria inodora), Russian thistle (Salsola kali), speedwell (bird's-eye speedwell, Veronica persica), barley, spring (spring barley, Hordeum vulgare), wheat, spring (spring wheat, Triticum aestivum), buckwheat, wild (wild buckwheat, Polygonum convolvulus), mustard, wild (wild mustard, Sinapis arvensis), oat, wild (wild oat, Avena fatua), radish, wild (wild radish, Raphanus raphanistrum), windgrass (Apera spica-venti), barley, winter (winter barley, Hordeum vulgare), and wheat, winter (winter wheat, Triticum aestivum) were planted into a silt loam soil and treated preemergence with test chemicals formulated in a non-phytotoxic solvent mixture which included a surfactant.
(§2) At the same time, these species were planted in pots containing Redi-Earth® planting medium (Scotts Company, 14111 Scottslawn Road, Marysville, Ohio 43041) comprising spaghnum peat moss, vermiculite, wetting agent and starter nutrients and treated with postemergence applications of the test chemicals formulated in the same manner. Plants ranged in height from 2 to 18 cm (1- to 4-leaf stage). Treated plants and controls were maintained in a controlled growth environment for 14 to 21 d after which time all species were compared to controls and visually evaluated. Plant response ratings, summarized in Table D, are based on a scale of 0 to 100 where 0 is no effect and 100 is complete control. A dash (-) response means no test result.

kochia (Kochia scoparia) = tested on: kochia (Kochia scoparia)
Text: as §1, §2

[2] = tested on: blackgrass (Alopecurus myosuroides)
Text: as §1, §2

[3] = tested on: oilseed rape (Brassica napus)
Text: as §1, §2

[4] = tested on: windgrass (Apera spica-venti)
Text: as §1, §2

[5] = tested on: foxtail, green (green foxtail, Setaria viridis)
Text: as §1, §2

[6] = tested on: speedwell (bird's-eye speedwell, Veronica persica)
Text: as §1, §2

[7] = tested on: mustard, wild (wild mustard, Sinapis arvensis)
Text: as §1, §2

[8] = tested on: galium (catchweed bedstraw, Galium aparine)
Text: as §1, §2

[9] = tested on: deadnettle (henbit deadnettle, Lamium amplexicaule)
Text: as §1, §2

[10] = tested on: pigweed (Amaranthus retroflexus)
Text: as §1, §2

[11] = tested on: ryegrass, Italian (Italian ryegrass, Lolium multiflorum)
Text: as §1, §2

[12] = tested on: buckwheat, wild (wild buckwheat, Polygonum convolvulus)
Text: as §1, §2

[13] = tested on: chamomile (scentless chamomile, Matricaria inodora)
Text: as §1, §2

[14] = Postemergence, 31 g ai/ha, scale 0 to 100 (0 no effect, 100 complete control)
[15] = Postemergence, 125 g ai/ha, visual rating on scale 0 (no effect) to 100 (complete control), 14 to 21 d
[16] = Postemergence, 250 g ai/ha, scale 0 to 100 (0 no effect, 100 complete control)
[17] = Preemergence, 62 g ai/ha, scale 0 to 100 (0 no effect, 100 complete control)
[18] = Preemergence, 125 g ai/ha, scale 0 to 100 (0 no effect, 100 complete control)
[19] = Preemergence, 250 g ai/ha, scale 0 to 100, 0 no effect, 100 complete control
[20] = postemergence, 62 g ai/ha, scale 0 to 100, 0 no effect, 100 complete control

SMILES: Cc1nn(C)c(=O)c(-c2c(C)sc3c(C)cc(Cl)cc23)c1O [Compound 35]
- Bromegrass, Downy plant response rating [1, 14]: 5
- Plant response rating, Bromegrass, Downy [1, 15]: 25
- Plant response rating, Bromegrass, Downy [1, 16]: 30
- Plant response rating (scale of 0 to 100), Bromegrass, Downy ([1]; Preemergence, 31 g ai/ha): 20
- Plant response rating, Bromegrass, Downy [1, 17]: 30
- Plant response rating, Bromegrass, Downy [1, 18]: 55
- Plant response rating, Bromegrass, Downy [1, 19]: 65
- Plant response rating, Bromegrass, Downy [1, 20]: 25
- Kochia plant response rating (kochia (Kochia scoparia); [14]): 25
- Plant response rating, Kochia (kochia (Kochia scoparia); [15]): 65
- Plant response rating, Kochia (kochia (Kochia scoparia); [16]): 70
- Plant response rating (scale of 0 to 100), Kochia (kochia (Kochia scoparia); Preemergence, 31 g ai/ha): 0
- Plant response rating, Kochia (kochia (Kochia scoparia); [17]): 0
- Plant response rating, Kochia (kochia (Kochia scoparia); [18]): 20
- Plant response rating, Kochia (kochia (Kochia scoparia); [19]): 25
- Plant response rating, Kochia (kochia (Kochia scoparia); [20]): 20
- Blackgrass plant response rating [2, 14]: 30
- Plant response rating, Blackgrass [2, 15]: 75
- Plant response rating, Blackgrass [2, 16]: 85
- Plant response rating (scale of 0 to 100), Blackgrass ([2]; Preemergence, 31 g ai/ha): 75
- Plant response rating, Blackgrass [2, 17]: 85
- Plant response rating, Blackgrass [2, 18]: 85
- Blackgrass plant response rating [2, 19]: 95
- Plant response rating, Blackgrass [2, 20]: 65
- Oilseed Rape plant response rating [3, 14]: 95
- Plant response rating, Oilseed Rape [3, 15]: 100
- Plant response rating, Oilseed Rape [3, 16]: 100
- Plant response rating (scale of 0 to 100), Oilseed Rape ([3]; Preemergence, 31 g ai/ha): 0
- Plant response rating, Oilseed Rape [3, 17]: 10
- Plant response rating, Oilseed Rape [3, 18]: 65
- Plant response rating, Oilseed Rape [3, 19]: 100
- Plant response rating, Oilseed Rape [3, 20]: 98
- Windgrass plant response rating [4, 14]: 25
- Plant response rating, Windgrass [4, 15]: 70
- Plant response rating, Windgrass [4, 16]: 85
- Plant response rating (scale of 0 to 100), Windgrass ([4]; Preemergence, 31 g ai/ha): 25
- Plant response rating, Windgrass [4, 17]: 95
- Plant response rating, Windgrass [4, 18]: 100
- Plant response rating, Windgrass [4, 19]: 100
- Plant response rating, Windgrass [4, 20]: 65
- Foxtail, Green plant response rating [5, 14]: 75
- Plant response rating, Foxtail, Green [5, 15]: 95
- Plant response rating, Foxtail, Green [5, 16]: 95
- Plant response rating (scale of 0 to 100), Foxtail, Green ([5]; Preemergence, 31 g ai/ha): 50
- Plant response rating, Foxtail, Green [5, 17]: 45
- Plant response rating, Foxtail, Green [5, 18]: 65
- Plant response rating, Foxtail, Green [5, 19]: 100
- Plant response rating, Foxtail, Green [5, 20]: 90
- Speedwell plant response rating [6, 14]: 70
- Plant response rating, Speedwell [6, 15]: 80
- Plant response rating, Speedwell [6, 16]: 100
- Plant response rating (scale of 0 to 100), Speedwell ([6]; Preemergence, 31 g ai/ha): 0
- Plant response rating, Speedwell [6, 17]: 75
- Plant response rating, Speedwell [6, 18]: 100
- Plant response rating, Speedwell [6, 19]: 100
- Plant response rating, Speedwell [6, 20]: 75
- Mustard, Wild plant response rating [7, 14]: 98
- Plant response rating, Mustard, Wild [7, 15]: 100
- Plant response rating, Mustard, Wild [7, 16]: 100
- Plant response rating (scale of 0 to 100), Mustard, Wild ([7]; Preemergence, 31 g ai/ha): 85
- Plant response rating, Mustard, Wild [7, 17]: 100
- Plant response rating, Mustard, Wild [7, 18]: 100
- Plant response rating, Mustard, Wild [7, 19]: 100
- Plant response rating, Mustard, Wild [7, 20]: 100
- Galium plant response rating [8, 14]: 98
- Plant response rating, Galium [8, 15]: 95
- Plant response rating, Galium [8, 16]: 100
- Plant response rating (scale of 0 to 100), Galium ([8]; Preemergence, 31 g ai/ha): 80
- Plant response rating, Galium [8, 17]: 85
- Plant response rating, Galium [8, 18]: 95
- Plant response rating, Galium [8, 19]: 100
- Plant response rating, Galium [8, 20]: 98
- Deadnettle plant response rating [9, 14]: 15
- Plant response rating, Deadnettle [9, 15]: 20
- Plant response rating, Deadnettle [9, 16]: 80
- Plant response rating (scale of 0 to 100), Deadnettle ([9]; Preemergence, 31 g ai/ha): 0
- Plant response rating, Deadnettle [9, 17]: 15
- Plant response rating, Deadnettle [9, 18]: 55
- Plant response rating, Deadnettle [9, 19]: 80
- Plant response rating, Deadnettle [9, 20]: 20
- Pigweed plant response rating [10, 14]: 80
- Plant response rating, Pigweed [10, 15]: 85
- Plant response rating, Pigweed [10, 16]: 98
- Plant response rating (scale of 0 to 100), Pigweed ([10]; Preemergence, 31 g ai/ha): 25
- Plant response rating, Pigweed [10, 17]: 95
- Plant response rating, Pigweed [10, 18]: 100
- Plant response rating, Pigweed [10, 19]: 100
- Plant response rating, Pigweed [10, 20]: 80
- Ryegrass, Italian plant response rating [11, 14]: 65
- Plant response rating, Ryegrass, Italian [11, 15]: 80
- Plant response rating, Ryegrass, Italian [11, 16]: 90
- Plant response rating (scale of 0 to 100), Ryegrass, Italian ([11]; Preemergence, 31 g ai/ha): 75
- Plant response rating, Ryegrass, Italian [11, 17]: 85
- Plant response rating, Ryegrass, Italian [11, 18]: 100
- Plant response rating, Ryegrass, Italian [11, 19]: 100
- Plant response rating, Ryegrass, Italian [11, 20]: 75
- Buckwheat, Wild plant response rating [12, 14]: 95
- Plant response rating, Buckwheat, Wild [12, 15]: 100
- Plant response rating, Buckwheat, Wild [12, 16]: 100
- Plant response rating (scale of 0 to 100), Buckwheat, Wild ([12]; Preemergence, 31 g ai/ha): 15
- Plant response rating, Buckwheat, Wild [12, 17]: 20
- Plant response rating, Buckwheat, Wild [12, 18]: 20
- Plant response rating, Buckwheat, Wild [12, 19]: 35
- Plant response rating, Buckwheat, Wild [12, 20]: 100
- Chamomile plant response rating [13, 14]: 100
- Plant response rating, Chamomile [13, 15]: 100
- Plant response rating, Chamomile [13, 16]: 100
- Plant response rating (scale of 0 to 100), Chamomile ([13]; Preemergence, 31 g ai/ha): 100
- Plant response rating, Chamomile [13, 17]: 100
- Plant response rating, Chamomile [13, 18]: 100
- Plant response rating, Chamomile [13, 19]: 100
- Plant response rating, Chamomile [13, 20]: 100
